Measurements published in PMC10080691, “Enzyme-Responsive Double-Locked Photodynamic Molecular Beacon for Targeted Photodynamic Anticancer Therapy” (Journal of the American Chemical Society, 2023).

Key:
[1] = Stability in PBS and cathepsin B working buffer without enzymes (absorption/fluorescence spectra); format: physicochemical; conditions: 1 μM, PBS pH 7.4 or buffer pH 5.0 (25 mM NaOAc, 1 mM EDTA, 500 μM GSH), 0.1% Tween 80, 37 °C, 25 h
[2] = tested on: A549 human lung carcinoma cells; experiment: Intracellular fluorescence by flow cytometry; format: cell-based
Protocol: The cellular uptake of 1 was studied using a range of cell lines with different expression levels of MMP-2, namely the MMP-2-overexpressed A549 human lung carcinoma cells[73] and U-87 MG human glioblastoma cells,[74] as well as the low MMP-2-expressed HeLa human cervical carcinoma cells[75] and HEK-293 human embryonic kidney normal cells.[76] The cells were incubated with 1 (2 μM) in a serum-free medium for 1 h and then in the neat medium for a further 6 h to provide sufficient time for enzymatic cleavage. […] Similar results were obtained by flow cytometry (Figure 5b). The quantified fluorescence intensity for A549 cells was 3.8-fold that for HEK-293 cells. […] After subsequent cleavage of the remaining GFLG linker by the intrinsic cathepsin B inside the cells, the probe was activated favorably, leading to higher intracellular fluorescence intensity.
The cells were pretreated with SB-3CT (10 μM) and/or CA-074 Me (25 μM) or simply the neat medium for 2 h, followed by incubation with 1 (2 μM) for a further 1 h. […] The fluorescence images of the cells under all these conditions were captured using a confocal laser scanning microscope. […] For the cells with pretreatment with both inhibitors, fluorescence due to 1 could hardly be seen. Similarly, for the cells being incubated with 14, the intracellular fluorescence was negligible. […]
Confocal Fluorescence Microscopic Studies […]

CCN(CC)c1ccc2nc3ccc(/N=N/c4ccc(N(C)CCCNC(=O)OC[C@@H]5[C@@H]6CCc7nnn(CC(=O)NCCCC[C@@H]8NC(=O)CNC(=O)[C@H](CCCCN)NC(=O)[C@H](CCCNC(=N)N)NC(=O)[C@H](C(C)C)NC(=O)CNC(=O)[C@H](CC(C)C)NC(=O)[C@@H]9CCCN9C(=O)[C@H](CCCCN)NC(=O)[C@@H](N)CSCc9cc(COc%10ccc(C%11=C%12C(C)=C(I)C(/C=C/c%13ccc(OCCOCCOCCOC)cc%13)=[N+]%12[B-](F)(F)n%12c(/C=C/c%13ccc(OCCOCCOCCOC)cc%13)c(I)c(C)c%12%11)cc%10)cc(c9)CSC[C@@H](C(N)=O)NC(=O)[C@H](CCCCN)NC(=O)[C@H](CCCCN)NC(=O)CNC(=O)[C@H](CC(C)C)NC(=O)[C@H](Cc9ccccc9)NC(=O)CNC(=O)[C@H](CCCCN)NC(=O)CNC8=O)c7CC[C@@H]65)cc4)cc3[n+](-c3ccccc3)c2c1 [compound 1]
stability in the absence of enzymes [1]: stable
intracellular fluorescence intensity, A549 relative to HEK-293 cells ([2]; 2 μM, 1 h in serum-free medium, then 6 h in neat medium, three independent experiments): 3.8 fold
intracellular fluorescence intensity, untreated cells relative to cells pretreated with the two inhibitors ([2]; A549, 2 μM 1 h + 6 h, SB-3CT (10 μM) and CA-074 Me (25 μM) 2 h pretreatment): 5.6 fold
